This is an account of results in PMC10517258, “PYRIDOX(AM)INE 5′-PHOSPHATE OXIDASE3 of Arabidopsis thaliana maintains carbon/nitrogen balance in distinct environmental conditions” (Plant Physiology, 2023).

Holding throughout (type): biochemical
One experiment deals with T1, PDX3 (At5g49970) (Arabidopsis thaliana, UniProt Q9LTX3).
T1 construct: gene PPOX1; cDNA without predicted transit peptide (residues 2 to 73 removed), N-terminal His6 tag, pET-28a, E. coli BL21(DE3); NNRE and POX domains both present
T1 sequence (Q9LTX3 74-530): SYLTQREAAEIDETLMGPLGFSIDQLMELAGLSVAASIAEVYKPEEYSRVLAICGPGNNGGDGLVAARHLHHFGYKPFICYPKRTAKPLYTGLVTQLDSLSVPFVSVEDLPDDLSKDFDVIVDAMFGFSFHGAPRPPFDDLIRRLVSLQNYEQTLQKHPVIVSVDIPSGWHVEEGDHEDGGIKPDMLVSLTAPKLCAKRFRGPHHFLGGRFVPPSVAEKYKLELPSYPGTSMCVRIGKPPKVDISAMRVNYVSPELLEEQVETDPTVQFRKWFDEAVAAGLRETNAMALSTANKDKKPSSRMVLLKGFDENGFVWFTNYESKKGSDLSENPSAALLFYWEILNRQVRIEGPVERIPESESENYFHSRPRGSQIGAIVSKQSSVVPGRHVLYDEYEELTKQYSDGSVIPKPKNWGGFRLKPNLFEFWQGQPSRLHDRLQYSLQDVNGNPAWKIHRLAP
The experiment can be described thus: coupled spectrophotometric NADHX repair assay, […] and […] nm. Particulars: epimerization by NNRE domain; coupled to NNRD; 1 mM ATP, 2 mM MgCl2, 5 mM KCl, Tris-HCl pH 8, 25 °C; racemic NADHX.

Experiment [1] concerns the target T2, Arabidopsis NR2 (NIA2, At1g37130) (Arabidopsis thaliana, UniProt P11035).
T2 construct: commercial recombinant enzyme expressed and purified from Pichia pastoris
T2 sequence (P11035 1-917): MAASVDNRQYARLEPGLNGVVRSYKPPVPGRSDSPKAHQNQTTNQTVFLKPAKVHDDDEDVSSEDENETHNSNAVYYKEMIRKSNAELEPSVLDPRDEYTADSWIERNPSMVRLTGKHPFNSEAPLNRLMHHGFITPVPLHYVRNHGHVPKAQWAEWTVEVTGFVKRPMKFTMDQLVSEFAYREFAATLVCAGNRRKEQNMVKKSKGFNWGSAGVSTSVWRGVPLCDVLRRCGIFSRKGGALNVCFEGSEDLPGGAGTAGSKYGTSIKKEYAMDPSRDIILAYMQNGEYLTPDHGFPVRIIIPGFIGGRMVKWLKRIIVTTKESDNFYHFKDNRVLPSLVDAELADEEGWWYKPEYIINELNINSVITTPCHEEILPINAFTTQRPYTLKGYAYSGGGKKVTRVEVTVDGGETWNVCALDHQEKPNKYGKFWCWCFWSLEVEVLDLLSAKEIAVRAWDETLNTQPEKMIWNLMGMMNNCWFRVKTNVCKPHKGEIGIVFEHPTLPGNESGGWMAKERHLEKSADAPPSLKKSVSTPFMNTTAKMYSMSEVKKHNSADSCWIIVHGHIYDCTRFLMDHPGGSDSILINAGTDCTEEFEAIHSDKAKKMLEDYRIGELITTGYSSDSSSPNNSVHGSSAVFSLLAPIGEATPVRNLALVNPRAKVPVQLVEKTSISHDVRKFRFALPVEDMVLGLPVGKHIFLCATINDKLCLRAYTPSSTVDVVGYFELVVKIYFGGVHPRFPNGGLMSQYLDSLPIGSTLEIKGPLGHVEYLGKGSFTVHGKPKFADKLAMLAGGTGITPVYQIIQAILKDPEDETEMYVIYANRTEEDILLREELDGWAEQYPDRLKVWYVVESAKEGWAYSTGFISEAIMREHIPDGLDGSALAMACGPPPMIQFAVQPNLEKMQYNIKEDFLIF
The experiment can be described thus: nitrate reductase activity with APADH, absorbance at […] nm. Particulars: electron donor replacing NADH, 0.1 mM; 10 mM potassium nitrate, 0.005 mM FAD, phosphate pH 7.5, 25 °C.

For another experiment, the target named is T3, NNRD (dehydratase) (Arabidopsis thaliana, UniProt Q94AF2).
T3 construct: gene At5g19150; no transit peptide (residues 2 to 45 removed), C-terminal His6 tag, pET-24b, E. coli BL21(DE3); locus printed as At5g12150, probably a misprint of At5g19150
T3 sequence (Q94AF2 46-365): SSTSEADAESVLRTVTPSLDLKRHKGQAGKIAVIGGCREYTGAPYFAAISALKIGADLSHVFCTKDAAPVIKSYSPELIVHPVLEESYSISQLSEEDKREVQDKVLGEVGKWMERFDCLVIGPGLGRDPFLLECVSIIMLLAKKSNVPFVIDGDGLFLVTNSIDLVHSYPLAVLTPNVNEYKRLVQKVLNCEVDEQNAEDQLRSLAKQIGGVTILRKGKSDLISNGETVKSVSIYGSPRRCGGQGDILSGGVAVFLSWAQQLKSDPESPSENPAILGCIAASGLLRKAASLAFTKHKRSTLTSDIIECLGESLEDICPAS
The experiment can be described thus: spectrophotometric dehydratase assay, […] and […] nm. Particulars: 1 mM ATP, 2 mM MgCl2, 5 mM KCl, Tris-HCl pH 8, 25 °C; racemic NADHX.

Regarding `NC(=O)C1=CN([C@@H]2O[C@H](COP(=O)(O)OP(=O)(O)OC[C@H]3O[C@@H](n4cnc5c(N)ncnc54)[C@H](O)[C@@H]3O)[C@@H](O)[C@H]2O)[C@H](O)CC1` (mixture of isomers) [(R)-NADHX], the “coupled spectrophotometric NADHX repair assay, 290 and 340 nm” value at PDX3 (At5g49970) is reported as “leads to epimerization of (R)-NADHX in the racemate to (S)-NADHX by the NNRE domain”.

Turning to `CC(=O)C1=CN([C@@H]2O[C@H](COP(=O)(O)OP(=O)(O)OC[C@H]3O[C@@H](n4cnc5c(N)ncnc54)[C@H](O)[C@@H]3O)[C@@H](O)[C@H]2O)C=CC1` [APADH], the “nitrate reductase activity with APADH, absorbance at 363 nm” value in experiment [1] is “the latter was replaced with its analog, 3-acetylpyridine-adenine dinucleotide (APADH”.

As for `NC(=O)C1=CN([C@@H]2O[C@H](COP(=O)(O)OP(=O)(O)OC[C@H]3O[C@@H](n4cnc5c(N)ncnc54)[C@H](O)[C@@H]3O)[C@@H](O)[C@H]2O)[C@@H](O)CC1` (mixture of isomers) [(S)-NADHX], the “spectrophotometric dehydratase assay, 290 and 340 nm” value at NNRD (dehydratase) is recorded as “(S)-NADHX within a racemic mixture of NADHX is dehydrated to NADH by NNRD”.
